From US7132446B1, “Isolation of a dimer di-gallate, a potent endothelium-dependent vasorelaxing compound” (University of South Florida, priority 2001, dated 2006)

How the values were obtained:
[1] = system: phenylephrine-contracted endothelium-intact rat aortic rings; test: Endothelium-dependent relaxation (EDR) bioassay, endothelium-intact aortic rings; type: cell-based; conditions: for threshold concentration (for 10% relaxation): intact aortic rings; for EDR activity (relaxation of endothelium-intact rings): phenylephrine-contracted endothelium-intact rings
Procedure: Aortic ring preparation and bioassay. The procedure for preparation of rat aortic rings and general aspects of determining mechanical activity has been previously described. Briefly, male Sprague-Dawley rats (200–225 g) were euthanized with an overdose of sodium pentobarbital (100 mg/kg, i.p.), bled, and the thoracic aorta excised, cleaned, and rings (3–4 mm in length) were cut, taking care not to disturb the endothelium. In some instances the endothelium was deliberately removed by gently rubbing the lumen with a curved forceps. The rings were suspended in tissue baths containing a physiologic salt solution (PSS) with the following composition (in millimolar): 118 NaCl; 4.7 KCl; 25 NaHCO3; 1.2 MgSO4; 1.2 NaH2PO4; 0.026 EDTA; 1.5 CaCl2; 11 glucose. The solution was bubbled continuously with O2/CO2 (95%/5%), and maintained at 37° C. Activity was recorded on a Grass polygraph. After equilibration for at least 1 hr under 1.5 g of tension, tissues were contracted submaximally (approximately 80% of Emax) with phenylephrine (˜1 μM), and then 3 μM acetylcholine, a known EDR-active compound, was added to the bath to test for intactness of the endothelium. Rings were washed with PSS three times over the next 45 min. prior to the next sequence. EDR activity of HPLC peaks was determined by first contracting aortic rings with phenylephrine, as above, then generating concentration-response curves for relaxation by adding each peak sample to the bath, beginning with a sub-threshold concentration and adding increasing amounts until maximum relaxation is achieved. To test for endothelium-dependence, denuded aortic rings were used. Successful endothelium removal was established by a lack of relaxation response to 3 μM acetylcholine. […] Statistical methods. Data are presented as means±SEM. EC50s were determined from concentration-response curves, utilizing nonlinear regression analysis software (GraphPad Prizm, San Diego, Calif.).

[2] = system: endothelium-denuded rat aortic rings; test: Relaxation bioassay, endothelium-denuded aortic rings; type: cell-based; conditions: de-endothelialized rings
Procedure: Aortic ring preparation and bioassay. The procedure for preparation of rat aortic rings and general aspects of determining mechanical activity has been previously described. Briefly, male Sprague-Dawley rats (200–225 g) were euthanized with an overdose of sodium pentobarbital (100 mg/kg, i.p.), bled, and the thoracic aorta excised, cleaned, and rings (3–4 mm in length) were cut, taking care not to disturb the endothelium. In some instances the endothelium was deliberately removed by gently rubbing the lumen with a curved forceps. The rings were suspended in tissue baths containing a physiologic salt solution (PSS) with the following composition (in millimolar): 118 NaCl; 4.7 KCl; 25 NaHCO3; 1.2 MgSO4; 1.2 NaH2PO4; 0.026 EDTA; 1.5 CaCl2; 11 glucose. The solution was bubbled continuously with O2/CO2 (95%/5%), and maintained at 37° C. Activity was recorded on a Grass polygraph. […] EDR activity of HPLC peaks was determined by first contracting aortic rings with phenylephrine, as above, then generating concentration-response curves for relaxation by adding each peak sample to the bath, beginning with a sub-threshold concentration and adding increasing amounts until maximum relaxation is achieved. […]

blood vessels in vitro = conditions: background statements; cited from earlier work

In the case of `O=C(O[C@@H]1[C@@H](c2c(O)cc(O)c3c2O[C@H](c2ccc(O)c(O)c2)[C@H](OC(=O)c2cc(O)c(O)c(O)c2)C3)c2c(O)cc(O)cc2O[C@@H]1c1ccc(O)c(O)c1)c1cc(O)c(O)c(O)c1` (single isomer, unassigned; peak f2) [peak F2, epicatechin-galloyl-epicatechin-gallate], the “threshold concentration (for 10% relaxation)” value [1] is reported as “approximately 0.35 μg/ml”, the “threshold concentration (for 10% relaxation)” value ([1]; molar value printed in brackets) is reported as ~0.4 µM and the “EDR activity (relaxation of endothelium-intact rings)” value [1] is reported as “relaxed”. For the same compound, the “EDR activity (relaxation of endothelium-intact rings)” value ([1]; listed as dimer digallate) was “substantial EDR activity”, the EC50 ([1]; phenylephrine-contracted intact rings) was 0.76 µM and the “EC50 for relaxation of intact aortic rings” value ([1]; phenylephrine-contracted intact rings, mean±SEM, n=4 rats (3–6 concentration-response curves/rat aorta)) was 0.67 ± 0.04 µg/mL. For the same compound, the “relaxing activity on endothelium-denuded rings” value [2] was “no effect”.
In the case of `N=C(N)NCCC[C@H](N)C(=O)O` [L-arginine, reference compound], the “effect on the B2-di-gallate-induced relaxation of intact rings” value ([1]; added to the bath after peak F2, L-arginine added after NNA) is reported as “caused the tissue to relax once again”.
In the case of `Oc1cc(O)c2c(c1)OC(c1ccc(O)c(O)c1)C(O)C2O` (stereo not drawn) [leucocyanidol], the “EDR activity (previous studies)” value (blood vessels in vitro) is given as “some activity at lower concentrations”.
